“Also recorded” adds a separate entry of the source.
Legend:
[1] = system: Myc-CaP cells; experiment: Colony formation of EXT1-overexpressing vs EV MyC-CaP cells with FGFR inhibitor; assay type: cell-based, mice; conditions: 1, 5, 10 μm AZD4547 vs DMSO
[2] = system: Myc-CaP cells with EXT1-overexpression; experiment: s.c. xenograft prostate cancer mouse model, EXT1-overexpressing Myc-CaP cells; assay type: in vivo, FVB/NJ mice
Description: (§1) FIG. 7A-FIG. 7F show inhibition of CREB or HS attenuates prostate cancer growth. […] 7A) and HS (FIG. 7B) in Myc-CaP cells, and the in vitro cell growth (FIG. 7C) and migration (FIG. 7D).
(§2) FIG. 22E and FIG. 22F show myc-Cap cells in vivo for KG-501 (FIG. 22E) and Surfen (FIG. 22F). FIG. 22G and FIG. 22H show Ext1-overexpressing myc-Cap cells in vivo for KG-501 (FIG. 22G) and Surfen (FIG. 22H).

[3] = system: Myc-CaP cells; experiment: Cell migration of Myc-CaP cells; assay type: cell-based, mice
Description: as §1, §2

[4] = system: HS; experiment: Expression of HS (heparan sulfate staining) in Myc-CaP cells; assay type: cell-based, mice
Description: as §1, §2

[5] = system: EXT1 mRNA; experiment: Expression of EXT1 mRNA in Myc-CaP cells; assay type: cell-based, mice
Description: as §1, §2

[6] = system: Myc-CaP cells; experiment: s.c. xenograft prostate cancer mouse model, Myc-CaP cells; assay type: in vivo, FVB/NJ mice; conditions: without EXT1-overexpression
Description: as §1, §2

[7] = system: Myc-CaP cells; experiment: In vitro cell growth of Myc-CaP cells; assay type: cell-based, mice
Description: as §1, §2

COc1cc(CCc2cc(NC(=O)c3ccc(N4C[C@@H](C)N[C@@H](C)C4)cc3)n[nH]2)cc(OC)c1 [AZD4547]
resistance of EXT1-overexpressing cells to FGFR inhibitor in colony formation [1]: more resistant
growth of EXT1-overexpressing Myc-CaP cells in s.c. xenograft prostate cancer mouse model [2]: blocks EXT1-overexpression-enhanced prostate cancer growth in vivo

O=C(Nc1ccc(Cl)cc1)c1cc2ccccc2cc1OP(=O)(O)O [KG-501, 2-naphthol-AS-E-phosphate]
migration [3]: does-dependently inhibited
expression of HS [4]: does-dependently inhibited
expression of EXT1 mRNA [5]: does-dependently inhibited
growth of Myc-CaP cells in s.c. xenograft prostate cancer mouse model [6]: efficiently inhibited; also recorded: attenuated prostate cancer growth in vivo
growth of EXT1-overexpressing Myc-CaP cells in s.c. xenograft prostate cancer mouse model [2]: efficiently inhibited; also recorded: attenuated prostate cancer growth in vivo
in vitro cell growth [7]: does-dependently inhibited

Cc1cc(N)c2cc(NC(=O)Nc3ccc4nc(C)cc(N)c4c3)ccc2n1 [Surfen, bis-2-methyl-4-amino-quinolyl-6-carbamide]
growth of Myc-CaP cells in s.c. xenograft prostate cancer mouse model [6]: efficiently inhibited; also recorded: attenuated prostate cancer growth in vivo
growth of Myc-CaP cells in s.c. xenograft prostate cancer mouse model ([6]; listed as surfen): blocked PCa growth
growth of EXT1-overexpressing Myc-CaP cells in s.c. xenograft prostate cancer mouse model [2]: efficiently inhibited; also recorded: attenuated prostate cancer growth in vivo
